Legend:
PI3Kα = PI3Kα (Homo sapiens (Human), UniProt P42336); experiment: Biochemical evaluation of activity of PI3Kα (Kinase-Glo luminescence kinase assay); conditions: 25 μM ATP, 50 μM PIP2, 1 h at room temperature
Procedure: The potency of compounds in the present intention against PI3Kα was assessed by in vitro kinase assay. The kinase activity of PI3Kα was determined by detecting the level of ADP produced in the kinase reaction with luciferase-based luminescence detection.
The Kinase-Glo™ Kinase Assay Kit was purchased from Promega. All assays were performed at room temperature using white OptiPlate™-384 well plate. The PI3Kα kinase was purchased from Invitrogen. The substrate was PIP2 from Invitrogen. The kinase buffer contained 50 mM Hepes (pH 7.5), 3 mM MgCl2, 100 mM NaCl, 1 mM EGTA, 0.03% CHAPS and 2 mM DTT. […] The substrate solution contained 100 μM PIP2 and 50 μM ATP. The test compound was diluted to 10 mM in 100% DMSO and serially diluted three times into ten different concentrations in 100% DMSO. The compound diluted in 100% DMSO was diluted 25-fold in 1×kinase buffer. 2.5 μL of the diluted compound solution and 2.5 μL PI3Kα kinase solution were added to each well of a 384-well plate. The reaction was initiated by addition of 5 μL substrate solution to each well. […] The plate was then covered and the reaction was allowed to proceed for one hour at room temperature, followed by the addition of 10 μL Kinase-Glo™ reagent to each well to stop the reaction.
The percentage of inhibition was calculated as follows: Inhibition %=100−(max−sample RLU)/(max−min)*100
wherein sample RLU was the luminescence reading for a given compound concentration, min was the reading of DMSO control, and max was the reading of the enzyme-free control. The IC50 value was calculated with the XLfit program in Excel.

[1] = system: human lung cancer cell NCI-H460; experiment: Tumor cell viability by MTT assay; format: cell-based
Procedure: After 24 hours, 100 μL of fresh medium containing different concentrations of test compounds and the corresponding solvent control was added into each well to a final concentration of DMSO less than 0.2%. Six to nine concentration groups were set for each test compound, and three parallel wells were set for each group. The plate was incubated at 5% CO2, 37° C. for 96 hours. 20 μL of freshly prepared PBS solution containing 5 mg/mL MTT was added to each well. The supernatant was discarded after incubation for another 4 hours. 150 μL DMSO was added to each well to dissolve the MTT formazan precipitate. After being mixed by a micro-oscillator, the optical density (OD) was measured at the wavelength of 570 nm, and the tumor cells treated with DMSO were used as a control group.

Chain of PI3Kα (P42336 whole entry): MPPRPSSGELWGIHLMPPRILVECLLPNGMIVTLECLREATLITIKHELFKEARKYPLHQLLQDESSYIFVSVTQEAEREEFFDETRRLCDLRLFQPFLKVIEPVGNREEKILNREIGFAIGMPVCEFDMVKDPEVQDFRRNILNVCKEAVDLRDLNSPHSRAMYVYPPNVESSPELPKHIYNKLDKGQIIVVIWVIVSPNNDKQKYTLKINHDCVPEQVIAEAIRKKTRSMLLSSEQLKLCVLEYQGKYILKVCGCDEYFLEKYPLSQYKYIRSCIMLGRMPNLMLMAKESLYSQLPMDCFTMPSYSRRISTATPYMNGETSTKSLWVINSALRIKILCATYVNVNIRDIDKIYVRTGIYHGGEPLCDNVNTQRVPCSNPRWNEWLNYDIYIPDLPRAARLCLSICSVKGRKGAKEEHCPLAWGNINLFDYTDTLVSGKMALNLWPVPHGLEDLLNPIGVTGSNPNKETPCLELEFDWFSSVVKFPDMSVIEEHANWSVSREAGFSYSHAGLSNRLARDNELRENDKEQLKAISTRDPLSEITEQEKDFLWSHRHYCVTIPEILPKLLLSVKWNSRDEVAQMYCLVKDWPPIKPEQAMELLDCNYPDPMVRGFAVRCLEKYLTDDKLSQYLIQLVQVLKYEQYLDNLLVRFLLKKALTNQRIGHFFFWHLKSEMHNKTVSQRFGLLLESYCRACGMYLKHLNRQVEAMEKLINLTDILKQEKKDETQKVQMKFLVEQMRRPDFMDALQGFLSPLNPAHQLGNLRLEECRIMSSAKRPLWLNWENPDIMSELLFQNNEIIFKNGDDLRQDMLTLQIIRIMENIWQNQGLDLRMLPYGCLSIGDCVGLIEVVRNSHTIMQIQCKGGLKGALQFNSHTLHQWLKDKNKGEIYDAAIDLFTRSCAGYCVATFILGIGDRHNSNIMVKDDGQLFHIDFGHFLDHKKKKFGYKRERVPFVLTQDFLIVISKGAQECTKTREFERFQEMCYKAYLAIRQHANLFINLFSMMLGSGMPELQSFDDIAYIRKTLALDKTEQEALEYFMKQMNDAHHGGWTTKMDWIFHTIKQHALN
Chain of PI3Kα (P27986 whole entry partner): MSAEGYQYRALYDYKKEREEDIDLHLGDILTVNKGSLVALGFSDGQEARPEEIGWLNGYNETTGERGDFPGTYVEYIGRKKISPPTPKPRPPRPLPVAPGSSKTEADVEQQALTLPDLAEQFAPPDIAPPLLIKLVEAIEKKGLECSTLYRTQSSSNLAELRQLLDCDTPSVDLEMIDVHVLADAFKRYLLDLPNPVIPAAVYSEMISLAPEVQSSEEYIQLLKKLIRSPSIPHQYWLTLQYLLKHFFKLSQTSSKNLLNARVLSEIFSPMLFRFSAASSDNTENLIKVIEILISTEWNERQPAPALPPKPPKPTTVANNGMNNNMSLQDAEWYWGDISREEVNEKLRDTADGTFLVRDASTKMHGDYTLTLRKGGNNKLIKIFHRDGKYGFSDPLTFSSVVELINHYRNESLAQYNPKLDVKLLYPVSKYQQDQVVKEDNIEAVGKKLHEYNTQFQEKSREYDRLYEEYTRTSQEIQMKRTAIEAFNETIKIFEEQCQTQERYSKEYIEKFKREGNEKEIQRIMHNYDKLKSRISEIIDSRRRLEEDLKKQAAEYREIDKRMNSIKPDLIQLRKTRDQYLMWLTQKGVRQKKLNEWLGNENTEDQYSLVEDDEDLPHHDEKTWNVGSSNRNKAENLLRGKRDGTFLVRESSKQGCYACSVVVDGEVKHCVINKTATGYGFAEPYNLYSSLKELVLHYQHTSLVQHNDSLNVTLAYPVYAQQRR

| Compound | IC50 (PI3Kα) | IC50 ([1]; Homo sapiens, NCI-H460, 96 h) | IC50 ([1]; 96 hours) |
| --- | --- | --- | --- |
| COc1ncc(-c2cc(O[C@@H]3CCOC3)c3ncnc(C)c3c2)cc1NS(C)(=O)=O [Example 50, (R)—N-(2-methoxy-5-(4-methyl-8-((tetrahydrofuran-3-yl)oxy)quinazolin-6-yl)pyridin-3-yl)methanesulfonamide] | 2.2 nM | 790 nM |  |
| CNc1nc(C)c2cc(-c3cnc(OC)c(NS(=O)(=O)c4ccc(F)cc4F)c3)cc(OC3CCOC(C)(C)C3)c2n1 (stereo not drawn) [Example 37, N-(5-(8-((2,2-dimethyltetrahydro-2H-pyran-4-yl)oxy)-4-methyl-2-(methylamino)quinazolin-6-yl)-2-methoxypyridin-3-yl)-2,4-difluorobenzenesulfonamide] | 2.3 nM | 250 nM |  |
| COc1ncc(-c2cc(OC3CCOCC3)c3nc(NCC4CC4)nc(C)c3c2)cc1NS(=O)(=O)c1ccc(F)cc1F [Example 31, N-(5-(2-((cyclopropylmethyl)amino)-4-methyl-8-((tetrahydro-2H-pyran-4-yl)oxy)quinazolin-6-yl)-2-methoxypyridin-3-yl)-2,4-difluorobenzenesulfonamide] | 3.8 nM | 410 nM |  |
| CNc1nc(C)c2cc(-c3cnc(OC)c(NS(=O)(=O)c4ccc(F)cc4F)c3)cc(OCC3CCOCC3)c2n1 [Example 36, N-(2-methoxy-5-(4-methyl-2-(methylamino)-8-((tetrahydro-2H-pyran-4-yl)methoxy)quinazolin-6-yl)pyridin-3-yl)-2,4-difluoro-benzenesulfonamide] | 2.2 nM | 400 nM |  |
| CNc1nc(C)c2cc(-c3cnc(OC)c(NS(=O)(=O)c4ccc(F)cc4F)c3)cc(OC3CCCCC3)c2n1 [Example 39, N-(5-(8-(cyclohexyloxy)-4-methyl-2-(methylamino)quinazolin-6-yl)-2-methoxypyridin-3-yl)-2,4-difluorobenzenesulfonamide] | 15 nM | 1700 nM |  |
| CNc1nc(C)c2cc(-c3cnc(OC)c(NS(=O)(=O)c4ccc(F)cc4F)c3)cc(OCC3CCOC3)c2n1 (stereo not drawn) [Example 38, N-(2-methoxy-5-(4-methyl-2-(methylamino)-8-((tetrahydrofuran-3-yl)methoxy)quinazolin-6-yl)pyridin-3-yl)-2,4-difluorobenzenesulfonamide] | 2.3 nM | 310 nM |  |
| COc1ncc(-c2cc(OC3CCOCC3)c3nc(N)nc(C)c3c2)cc1NS(=O)(=O)C1CC1 [Example 6, N-(5-(2-amino-4-methyl-8-((tetrahydro-2H-pyran-4-yl)oxy)quinazolin-6-yl)-2-methoxypyridin-3-yl)cyclopropanesulfonamide] | 2.3 nM | 930 nM |  |
| COc1ncc(-c2cc(O[C@H]3CCOC3)c3nc(N)nc(C)c3c2)cc1NS(C)(=O)=O [Example 12, (S)—N-(5-(2-amino-4-methyl-8-((tetrahydrofuran-3-yl)oxy)quinazolin-6-yl)-2-methoxypyridin-3-yl)methanesulfonamide] | 4.5 nM | 2300 nM |  |
| COc1ncc(-c2cc(OC3CCOCC3)c3nc(N)nc(C)c3c2)cc1NS(C)(=O)=O [Example 5, N-(5-(2-amino-4-methyl-8-((tetrahydro-2H-pyran-4-yl)oxy)quinazolin-6-yl)-2-methoxypyridin-3-yl)methanesulfonamide] | 2.7 nM | 860 nM |  |

Stronger by IC50 (PI3Kα), values ahead:

| IC50 (PI3Kα) | IC50 ([1]; Homo sapiens, NCI-H460, 96 h) | IC50 ([1]; 96 hours) | Compound |
| --- | --- | --- | --- |
| 1.9 nM | 1000 nM |  | COc1ncc(-c2cc(OC(F)F)c3ncnc(C)c3c2)cc1NS(=O)(=O)c1ccc(F)cc1F [Example 71, N-(5-(8-(difluoromethoxy)-4-methylquinazolin-6-yl)-2-methoxypyridin-3-yl)-2,4-difluorobenzenesulfonamide] |
| 1.7 nM | 230 nM |  | COc1ncc(-c2cc(OCC3CCN(C)CC3)c3ncnc(C)c3c2)cc1NS(=O)(=O)c1ccc(F)cc1F [Example 66, N-(2-methoxy-5-(4-methyl-8-((1-methylpiperidin-4-yl)methoxy)quinazolin-6-yl)pyridin-3-yl)-2,4-difluoro-benzenesulfonamide] |
| 1.7 nM | 200 nM |  | COc1ncc(-c2cc(OCC3CC3)c3nc(N)nc(C)c3c2)cc1NS(=O)(=O)c1ccc(F)cc1F [Example 27, N-(5-(2-amino-8-(cyclopropylmethoxy)-4-methylquinazolin-6-yl)-2-methoxypyridin-3-yl)-2,4-difluorobenzenesulfonamide] |
| 1.6 nM | 200 nM |  | COCCOc1cc(-c2cnc(OC)c(NS(=O)(=O)c3ccc(F)cc3F)c2)cc2c(C)nc(N)nc12 [Example 25, N-(5-(2-amino-8-(2-methoxyethoxy)-4-methylquinazolin-6-yl)-2-methoxypyridin-3-yl)-2,4-difluorobenzenesulfonamide] |
| 1.4 nM | 570 nM |  | COc1ncc(-c2cc(OC3CCOCC3)c3ncnc(C)c3c2)cc1NS(C)(=O)=O [Example 47, N-(2-methoxy-5-(4-methyl-8-((tetrahydro-2H-pyran-4-yl)oxy)quinazolin-6-yl)pyridin-3-yl)methanesulfonamide] |
| 1 nM | 1200 nM |  | Cc1nc(N)nc2c(OC3CCOCC3)cc(-c3cnc(Cl)c(NS(=O)(=O)c4ccc(F)cc4)c3)cc12 [Example 8, N-(5-(2-amino-4-methyl-8-((tetrahydro-2H-pyran-4-yl)oxy)quinazolin-6-yl)-2-chloropyridin-3-yl)-4-fluorobenzenesulfonamide] |
| 1 nM | 56 nM |  | COc1ncc(-c2cc(OC3CCOC(C)(C)C3)c3ncnc(C)c3c2)cc1NS(=O)(=O)c1ccc(F)cc1F (stereo not drawn) [Example 58, N-(5-(8-((2,2-dimethyltetrahydro-2H-pyran-4-yl)oxy)-4-methylquinazolin-6-yl)-2-methoxypyridin-3-yl)-2,4-difluorobenzenesulfonamide] |
| 0.94 nM | 94 nM |  | COc1ncc(-c2cc(O[C@H]3CCOC3)c3nc(N)nc(C)c3c2)cc1NS(=O)(=O)c1ccc(F)cc1F [Example 11, (S)—N-(5-(2-amino-4-methyl-8-((tetrahydrofuran-3-yl)oxy)quinazolin-6-yl)-2-methoxypyridin-3-yl)-2,4-difluorobenzenesulfonamide] |
| 0.8 nM |  | 57 nM | COc1ncc(-c2cc(O[C@H]3CC[C@H](OC)CC3)c3nc(N)nc(C)c3c2)cc1NS(=O)(=O)c1ccc(F)cc1F (single isomer, unassigned) [Example 18-2, N-(5-(2-amino-8-((4-methoxycyclohexyl)oxy)-4-methylquinazolin-6-yl)-2-methoxypyridin-3-yl)-2,4-difluorobenzenesulfonamide] |
| 0.74 nM | 17 nM |  | COc1ncc(-c2cc(OCC3(C)COC3)c3ncnc(C)c3c2)cc1NS(=O)(=O)c1ccc(F)cc1F [Example 59, N-(2-methoxy-5-(4-methyl-8-((3-methyloxetan-3-yl)methoxy)quinazolin-6-yl)pyridin-3-yl)-2,4-difluoro-benzenesulfonamide] |
| 0.72 nM | 17 nM |  | COc1ncc(-c2cc(OC3CCOCC3)c3nc(N)nc(C)c3c2)cc1NS(=O)(=O)c1ccc(F)cc1Cl [Example 2, N-(5-(2-amino-4-methyl-8-((tetrahydro-2H-pyran-4-yl)oxy)quinazolin-6-yl)-2-methoxypyridin-3-yl)-2-chloro-4-fluorobenzenesulfonamide] |
| 0.7 nM | 500 nM |  | COc1ncc(-c2cc(OC)c3ncnc(C)c3c2)cc1NS(=O)(=O)c1ccc(F)cc1F [Example 72, N-(2-methoxy-5-(8-methoxy-4-methylquinazolin-6-yl)pyridin-3-yl)-2,4-difluorobenzenesulfonamide] |
